Experimental data published in article PMC10381533, “Inhibitory Effects of the Fungal Pigment Rubiginosin C on Hyphal and Biofilm Formation in Candida albicans and Candida auris” (Journal of Fungi, 2023).

Tests used:
[1] = test system: C. auris [DSM 21092] biofilm; assay: Effects on C. auris biofilms of various ages (2 h, 12 h, 24 h), crystal violet; type: cell-based, Candida auris
Experimental: The turbidity of C. auris [DSM 21092] dispersion was measured at 280 nm and diluted to the turbidity of a 0.5 McFarland standard. C. auris was cultured in RPMI 1640 medium supplemented with […] MOPS (37 °C, 150 rpm, 2 h, 12 h, 24 h) in 96-well non-tissue microtiter plates (Falcon no. 351172, Thermo Fisher Scientific). After incubation, C. auris biofilms of various ages (2 h, 12 h, 24 h) were washed once by PBS buffer and treated (37 °C, 150 rpm, 24 h) with serial diluted Rub C (250–0.02 μg/mL) in fresh RPMI 1640 medium supplemented with […] MOPS. Samples of each time point were further processed and evaluated by a microtiter plate reader, as described above.

[2] = test system: preformed S. aureus biofilm; assay: Dispersal effect on preformed S. aureus biofilm; type: cell-based, Staphylococcus aureus; details: 250 µg/mL
Experimental: compounds (250–2 μg/mL) in CASO with 4% glucose broth. The inhibition of biofilm formation was evaluated by staining with 150 μL of 0.1% crystal violet (CV; Thermo Fisher) following previously established protocols. In the next step, the supernatant of the 96-well plate was discarded and the wells were rinsed once with PBS buffer. The remaining biofilms were stained at room temperature for 15 min, rinsed three times with PBS buffer, and finally dissolved in 150 μL ethanol (95%). The absorbance of the resulting solution at 530 nm was quantified using a plate reader (Synergy 2, BioTek). Methanol (2.5%) and microporenic acid A (MAA) (250–2 μg/mL) were used as negative and positive controls. Standard deviations (SD) of two repeats with duplicates were 10% or less. […]
Table S2: Selected azaphilones were tested against the formation of biofilm of S. aureus, P. aeruginosa as well as C. auris and dispersal effect on preformed biofilm of S. aureus compared to solvent control (= 0%), respectively. SDs are shown as ±SD.
Compounds Strains Concentrations [µg/mL] […]

SMILES	biofilm attachment compared to solvent control (=0%) ([1]; 2 h old C. auris biofilm, 2 µg/mL) [%]	biofilm attachment compared to solvent control (=0%) ([1]; 2 h old C. auris biofilm, 3.9 µg/mL) [%]	biofilm attachment compared to solvent control (=0%) ([1]; 2 h old C. auris biofilm, 7.8 µg/mL) [%]	biofilm attachment compared to solvent control (=0%) ([1]; 2 h old C. auris biofilm, 15.6 µg/mL) [%]	biofilm attachment compared to solvent control (=0%) ([1]; 2 h old C. auris biofilm, 31.3 µg/mL) [%]	biofilm attachment compared to solvent control (=0%) ([1]; 2 h old C. auris biofilm, 62.5 µg/mL) [%]	biofilm attachment compared to solvent control (=0%) ([1]; 12 h old C. auris biofilm, 2 µg/mL) [%]	biofilm attachment compared to solvent control (=0%) ([1]; 12 h old C. auris biofilm, 3.9 µg/mL) [%]	biofilm attachment compared to solvent control (=0%) ([1]; 12 h old C. auris biofilm, 7.8 µg/mL) [%]	biofilm attachment compared to solvent control (=0%) ([1]; 12 h old C. auris biofilm, 15.6 µg/mL) [%]	biofilm attachment compared to solvent control (=0%) ([1]; 12 h old C. auris biofilm, 31.3 µg/mL) [%]	biofilm attachment compared to solvent control (=0%) ([1]; 12 h old C. auris biofilm, 62.5 µg/mL) [%]	biofilm attachment compared to solvent control (=0%) ([1]; 24 h old C. auris biofilm, 2 µg/mL) [%]	biofilm attachment compared to solvent control (=0%) ([1]; 24 h old C. auris biofilm, 3.9 µg/mL) [%]	biofilm attachment compared to solvent control (=0%) ([1]; 24 h old C. auris biofilm, 7.8 µg/mL) [%]	biofilm attachment compared to solvent control (=0%) ([1]; 24 h old C. auris biofilm, 15.6 µg/mL) [%]	biofilm attachment compared to solvent control (=0%) ([1]; 24 h old C. auris biofilm, 31.3 µg/mL) [%]	biofilm attachment compared to solvent control (=0%) ([1]; 24 h old C. auris biofilm, 62.5 µg/mL) [%]	dispersal effect on preformed biofilm of S. aureus compared to solvent control (= 0%) [2] [%]
C[C@@H]1[C@H](O)[C@@H](C)/C=C/C=C/CC/C=C/C=C/C=C/C=C/C(O[C@H]2O[C@H](C)[C@@H](O)[C@H](N)[C@@H]2O)CC2O[C@](O)(CC(O)C(O)CCC(O)CC(O)CC(O)CC(=O)O[C@H]1C)CC(O)C2C(=O)O (stereo partly shown) [Nystatin, nystatin]	84 ±25	39 ±10	58 ±16	53 ±10	50 ±10	47 ±8	96 ±12	64 ±12	49 ±10	43 ±6	41 ±9	45 ±8	93 ±28	48 ±2	51 ±9	49 ±5	50 ±10	46 ±5	
CC(=O)OC/C=C/C1=CC2=C(CO1)C(=O)[C@@](C)(OC(=O)c1c(C)cc(O)cc1O)C(=O)/C2=C\C=C\C1=CC2=C(CO1)C(=O)[C@@](C)(OC(=O)c1c(C)cc(O)cc1O)[C@@H](O)C2 [Rut B, rutilin B]																			51 ±8
